Experimental data taken from patent US20060263802A1 (priority 2003, published 2006).

What was measured:
Format in all cases: binding
[1] = system: human monoclonal antibody CRJB
[2] = system: human monoclonal antibody CR57
[3] = system: human monoclonal antibody CRJA
[4] = system: human monoclonal antibody CRJB; remark: listed apart in the source
[5] = system: human monoclonal antibody CR57; remark: listed apart in the source
[6] = system: human monoclonal antibody CRJA; remark: listed apart in the source

Sequence	Binding of CRJB to linear peptide (PEPSCAN-ELISA signal) [1]	Binding of CR57 to linear peptide (PEPSCAN-ELISA signal) [2]	Binding of CRJA to linear peptide (PEPSCAN-ELISA signal) [3]	Binding of CRJB (10 μg/ml) to looped/cyclic peptide (PEPSCAN-ELISA signal) [4]	Binding of CR57 (10 μg/ml) to looped/cyclic peptide (PEPSCAN-ELISA signal) [5]	Binding of CRJA (10 μg/ml) to looped/cyclic peptide (PEPSCAN-ELISA signal) [6]	Binding of CRJB (10 μg/ml) to looped/cyclic peptide (PEPSCAN-ELISA) [4]	Binding of CR57 (10 μg/ml) to looped/cyclic peptide (PEPSCAN-ELISA) [5]	Binding of CRJA (10 μg/ml) to looped/cyclic peptide (PEPSCAN-ELISA) [6]	Binding of human monoclonal antibody CRJB to linear peptide (PEPSCAN-ELISA signal) [1]	Binding of human monoclonal antibody CR57 to linear peptide (PEPSCAN-ELISA signal) [2]	Binding of human monoclonal antibody CRJA to linear peptide (PEPSCAN-ELISA signal) [3]	Binding of CRJB to looped/cyclic peptide (PEPSCAN-ELISA signal) [4]	Binding of CR57 to looped/cyclic peptide (PEPSCAN-ELISA signal) [5]	Binding of CRJA to looped/cyclic peptide (PEPSCAN-ELISA signal) [6]
SCPNNLVVEDEGCTN	114	83	88	69	82	85									
LVPGFGKAYTIFNKT	112	54	83				58	87	58						
YVTTTFKRKHFRPTP	106	85	84	111	146	137									
KGCLRVGGRCHPHVN	130	68	108				91	65	102						
KMNGFTCTGVVTEAE	104	76	90	71	77	83									
ENYTNFVGYVTTTFK	112	44	80	80	60	58									
PLADPSTVFKDGDEA										125	99	84	97	148	97
STNHDYTIWMPENPR	112	60	77	74	72	51									
FVEVHLPDVHNQVSG										143	92	93	101	150	103
LVVEDEGCTNLSGFS	103	76	58	82	76	104									
HFRPTPDACRAAYNW	113	46	93	71	65	62									
VRKREECLDALESIM	181	58	111				66	105	101						
EADAHYKSVRTWNEI	97	58	79				76	78	63						
VGGRCHPHVNGVFFN	136	120	92				64	143	106						
CHPHVNGVFFNGIIL	150	97	94				101	113	105						
VSFRRLSHLRKLVPG	111	90	55				94	141	99						
EIEHLVVEELVRKRE	113	82	86				89	107	93						
YTIFNKTLMEADAHY	147	104	90				79	119	108						
YEESLHNPYPDYRWL	106	58	87	50	98	84									
GYILAIKMNGFTCTG	90	75	73	61	87	72									
HMELLESSVIPLVHP	129	110	114				104	118	106						
MQTSNETKWCPPDQL	132	104	112				33	138	74						
KRKHFRPTPDACRAA	93	65	65	84	94	85									
VKTTKESLVIISPSV	120	71	96	92	98	100									
